Data on eight compounds can be found in article PMC4139355 (PLoS ONE, 2014).

As a reminder, the IC50 is the concentration at which inhibition is half-maximal. Usually EC50 stands for the concentration giving half of the maximal effect.

A short description of data set [1]: MTT cytotoxicity test in LS174T cells. Particulars: human, LS174T cells. The method, then: (§1) A stably transfected gene reporter cell line AZ-GR was used for assessment of GR transcriptional activity. A transiently transfected LS174T human colon adenocarcinoma cells were used for assessment of PXR transcriptional activity. […] The reporter plasmid was transiently transfected to LS174T cells by lipofection (FuGENE 6) with 300 ng/well of p3A4-luc reporter in 24-well plates. Cells were incubated for 24 h with tested compounds and/or vehicle (DMSO; 0.1% v/v), in the presence or absence of RIF (10 µM; LS174T cells) or DEX (100 nM; AZ-GR cells). After the treatments, cells were lysed and luciferase activity was measured. In parallel, cell viability was determined by conventional MTT test.
(§2) Gene reporter assays were performed in two different experimental layouts.
(§3) Treatments were performed in triplicates. Upper panels: MTT test was performed and absorbance was measured at 540 nm. The data are the mean from experiments from three consecutive passages of cells and are expressed as a percentage of viability of control cells. The values of IC50 were calculated and are indicated in a figure. […] The data are the mean from experiments from four consecutive passages of cells and are expressed as a percentage of maximal induction attained by RIF. […] The data are the mean from experiments from four consecutive passages of cells and are expressed as a fold induction of luciferase activity over control cells.
(Tetrazolium dyes change colour on reduction, which living cells bring about.)

The nature of data set [2]: MTT cytotoxicity test in AZ-GR cells. Particulars: human, AZ-GR cells (stably transfected GR gene reporter cell line), cytotoxicity in AZ-GR cells IC50, MTT, 24 h. The method, then:
as §1
as §3, with “Model activator of GR was dexamethasone (DEX; 0.1 µM). Treatments” for “Treatments”

In data set [3] the target is T1, glucocorticoid receptor GR (Homo sapiens, UniProt P04150).
T1 sequence (P04150 1-777): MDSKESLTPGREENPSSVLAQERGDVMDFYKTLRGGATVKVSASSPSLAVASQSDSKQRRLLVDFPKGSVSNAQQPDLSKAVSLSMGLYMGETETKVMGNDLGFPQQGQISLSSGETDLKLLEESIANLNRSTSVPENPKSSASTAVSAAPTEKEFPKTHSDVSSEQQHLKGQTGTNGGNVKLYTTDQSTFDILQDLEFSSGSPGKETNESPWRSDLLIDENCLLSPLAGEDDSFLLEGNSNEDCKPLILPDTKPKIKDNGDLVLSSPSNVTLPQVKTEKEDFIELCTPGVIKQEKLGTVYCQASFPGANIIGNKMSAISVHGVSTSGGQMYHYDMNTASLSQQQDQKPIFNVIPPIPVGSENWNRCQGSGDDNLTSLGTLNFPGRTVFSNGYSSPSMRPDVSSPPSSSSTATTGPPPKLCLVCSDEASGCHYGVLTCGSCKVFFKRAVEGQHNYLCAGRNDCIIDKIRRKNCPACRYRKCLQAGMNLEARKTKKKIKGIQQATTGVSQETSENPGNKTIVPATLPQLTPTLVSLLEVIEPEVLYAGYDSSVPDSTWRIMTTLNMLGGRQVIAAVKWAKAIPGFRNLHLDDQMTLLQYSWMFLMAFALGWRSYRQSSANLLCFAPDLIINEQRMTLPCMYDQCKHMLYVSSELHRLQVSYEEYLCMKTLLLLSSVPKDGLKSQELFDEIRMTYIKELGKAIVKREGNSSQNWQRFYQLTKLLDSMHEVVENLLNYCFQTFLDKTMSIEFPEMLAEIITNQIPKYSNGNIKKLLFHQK
The experiment in a line: GR gene reporter assay in AZ-GR cells, antagonist mode with dexamethasone. Format: cell-based. Particulars: in the presence of DEX 0.1 µM, 24 h, read-out: GR activation, antagonist mode IC50. The method, then:
as §1
as §3, with “Model activator of GR was dexamethasone (DEX; 0.1 µM). Treatments” for “Treatments”
For orientation: Reporter assays use an easily measured gene product as a stand-in for the process of interest.

Data set [4] deals with LS174T cells. Description: MTT cytotoxicity test in LS174T cells. As to conditions: for viability of LS174T cells (in words): MTT, 24 h, LAN up to 100 µM, OME up to 250 µM. The method, then: as §1, §2, §3
The subject of data set [5] is AZ-GR cells. Description: MTT cytotoxicity test in AZ-GR cells. The method, then: as §1
as §3, with “Model activator of GR was dexamethasone (DEX; 0.1 µM). Treatments” for “Treatments”

Data set [6] concerns CYP3A4 protein in HepG2 cells. The experiment in a line: CYP3A4 protein expression (Western blot) in HepG2 cells. As to conditions: 48 h. The method, then: Total protein extracts were prepared as described elsewhere. SDS–PAGE gels (10%) were run on a BioRad apparatus according to the general procedure followed by the protein transfer onto PVDF membrane. The membrane was saturated with 5% non-fat dried milk for 1 h at room temperature. […] Chemiluminescent detection was performed using horseradish peroxidase-conjugated secondary antibodies (Santa Cruz Biotechnology) and Western blotting Luminol kit (Santa Cruz Biotechnology). The density of bands was measured by densitometry.
Density of bands was quantified by densitometry.

In data set [7] the target is T1, glucocorticoid receptor GR. Particulars: AZ-GR cells, 24 h, agonist mode. As to the method:
as §1
as §3, with “Model activator of GR was dexamethasone (DEX; 0.1 µM). Treatments” for “Treatments”

Data set [8] deals with CYP3A4 mRNA in primary human hepatocytes. On the set-up: method as in PMID 12695340. As to conditions: 100 µM–200 µM OME; cited from earlier work.
Data set [9] has as its system CYP3A4-mediated luciferase activity in HepG2 cells. Also noted: method as in PMID 12235278, PMID 20832446. As to conditions: HepG2 cells reporter gene assay; cited from earlier work.
Data set [10] has as its target T2, pregnane X receptor PXR (Homo sapiens, UniProt O75469).
T2 sequence (O75469 1-434): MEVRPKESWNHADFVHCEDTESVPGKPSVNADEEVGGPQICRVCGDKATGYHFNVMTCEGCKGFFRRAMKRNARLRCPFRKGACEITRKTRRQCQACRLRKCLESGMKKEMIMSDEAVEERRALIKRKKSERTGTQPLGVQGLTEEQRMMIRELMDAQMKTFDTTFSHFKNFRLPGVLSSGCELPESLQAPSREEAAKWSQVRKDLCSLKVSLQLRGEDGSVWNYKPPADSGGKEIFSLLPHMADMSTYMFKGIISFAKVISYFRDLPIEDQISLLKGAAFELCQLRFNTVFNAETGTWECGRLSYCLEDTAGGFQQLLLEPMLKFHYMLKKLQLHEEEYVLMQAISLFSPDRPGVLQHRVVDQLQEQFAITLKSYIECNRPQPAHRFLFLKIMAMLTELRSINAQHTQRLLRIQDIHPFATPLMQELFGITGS
The experiment in a line: PXR gene reporter assay (p3A4-luc in LS174T cells), agonist mode. The method, then: as §1, §2, §3

Molecules are shown by their SMILES. Read-outs that look alike come from different tables or passages of the source.

With `Cc1c(OCC(F)(F)F)ccnc1C[S@@+]([O-])c1nc2ccccc2[nH]1` [R-LAN, R-lansoprazole], the IC50 at 24 h in data set [1] is above 100 µM; in data set [2] it was 184 ± 2.9 µM. Also, the IC50 in [3] was around 100 µM.
For the compound `COc1ccc2[nH]c([S+]([O-])Cc3ncc(C)c(OC)c3C)nc2c1` (racemic) [rac-OME, rac-omeprazole], the IC50 in [4] and in data set [5] was above 250 µM each time.
Take `Cc1c(OCC(F)(F)F)ccnc1C[S@+]([O-])c1nc2ccccc2[nH]1` [S-LAN, S-lansoprazole]: in [6], the “induction of CYP3A4 protein (in words)” value is “strongest effects”. Further, the values for the IC50 in data set [4] and in data set [5] were above 100 µM and 200 ± 6.5 µM, respectively.
As to `Cc1c(OCC(F)(F)F)ccnc1C[S+]([O-])c1nc2ccccc2[nH]1` (racemic) [rac-LAN, rac-lansoprazole], the IC50 is above 100 µM in [4] and 200 ± 19.5 µM in data set [5].
For the compound `Cc1c(OCC(F)(F)F)ccnc1C[S+]([O-])c1nc2ccccc2[nH]1` (stereo not drawn) [LAN, lansoprazole], the “induction of CYP3A4 protein (in words)” value in data set [6] is “induced CYP3A4 protein”. In data set [4], the “viability of LS174T cells (in words)” value is “did not observe significant decline in viability”. Moreover, the “effect on basal activity of GR (in words)” value in [7] is on record as “weak effects on basal activity of GR”.
As to `COc1ccc2[nH]c([S+]([O-])Cc3ncc(C)c(OC)c3C)nc2c1` (stereo not drawn) [OME, omeprazole], in data set [4], the “viability of LS174T cells (in words)” value was “did not observe significant decline in viability”. Besides, in [8], the “CYP3A4 mRNA expression induction” value is listed as 4 fold. In data set [9], the “induction of CYP3A4-mediated luciferase activity (in words)” value is recorded as “showed an induction of CYP3A4-mediated luciferase activity”.
On to `COc1ccc2nc([S@@+]([O-])Cc3ncc(C)c(OC)c3C)[nH]c2c1` [S-OME, S-omeprazole], for which the IC50 at 24 h was above 250 µM in data set [1] and 214 µM in [2]. The same compound showed an EC50 in data set [10] of 2 ± 0.6 µM. Also, the “PXR activation, agonist mode (in words)” value in [10] (human, 24 h) is “activated PXR in concentrations 10 µM and 100 µM with drop of activation at 250 µM”.
As to `COc1ccc2nc([S@+]([O-])Cc3ncc(C)c(OC)c3C)[nH]c2c1` [R-OME, R-omeprazole], the IC50 in data set [4] and in [5] was above 250 µM throughout. Further, in [10] (24 h, LS174T cells with p3A4-luc), the “PXR activation, agonist mode (in words)” value is “strongly activated PXR in concentrations 100 µM and 250 µM”. The EC50 in data set [10] (read-out: PXR activation, agonist mode EC50, 24 h, LS174T cells with p3A4-luc, absence of RIF) turned out to be 25.3 ± 3.1 µM.
